Reference: patent US20160311826A1, “SGC STIMULATORS” (IRONWOOD PHARMACEUTICALS, INC., priority 2013, published 2016)
pEC50, pIC50: −log10 of the molar value.

Legend:
[1] = biological target: T1, soluble guanylate cyclase (sGC) (Homo sapiens, UniProt Q02108+Q02153); assay: sGC-HEK-cGMP assay with LC/MS detection; type: cell-based; conditions: HEK293 cells, 10 μM DETA-NONOate; concentration eliciting 50% of high control response (30 μM Compound Y); read-out: sGC_HEK_LC MS EC50 Abs
T1 construct: endogenously expressing soluble guanylate cyclase (sGC); endogenous in cells; host or cells: HEK293
T1 sequence (Q02153 1-619): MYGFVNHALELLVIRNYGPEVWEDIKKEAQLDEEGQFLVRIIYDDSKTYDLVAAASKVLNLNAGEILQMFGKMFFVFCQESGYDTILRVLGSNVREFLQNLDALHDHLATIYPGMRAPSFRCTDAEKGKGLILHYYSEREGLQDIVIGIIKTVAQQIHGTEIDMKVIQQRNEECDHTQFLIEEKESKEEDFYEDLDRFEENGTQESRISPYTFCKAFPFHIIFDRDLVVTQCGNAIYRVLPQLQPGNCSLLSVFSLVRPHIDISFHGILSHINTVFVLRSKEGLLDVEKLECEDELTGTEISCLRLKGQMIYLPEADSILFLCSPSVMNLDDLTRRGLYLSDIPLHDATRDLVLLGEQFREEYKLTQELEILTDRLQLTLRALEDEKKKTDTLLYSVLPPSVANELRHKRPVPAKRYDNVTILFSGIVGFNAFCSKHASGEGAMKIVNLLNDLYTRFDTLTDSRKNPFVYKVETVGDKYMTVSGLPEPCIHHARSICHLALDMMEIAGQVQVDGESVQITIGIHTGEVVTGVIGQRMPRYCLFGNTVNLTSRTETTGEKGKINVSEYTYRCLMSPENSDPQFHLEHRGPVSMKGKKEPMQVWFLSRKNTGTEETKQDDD
T1 sequence (Q02108 1-690): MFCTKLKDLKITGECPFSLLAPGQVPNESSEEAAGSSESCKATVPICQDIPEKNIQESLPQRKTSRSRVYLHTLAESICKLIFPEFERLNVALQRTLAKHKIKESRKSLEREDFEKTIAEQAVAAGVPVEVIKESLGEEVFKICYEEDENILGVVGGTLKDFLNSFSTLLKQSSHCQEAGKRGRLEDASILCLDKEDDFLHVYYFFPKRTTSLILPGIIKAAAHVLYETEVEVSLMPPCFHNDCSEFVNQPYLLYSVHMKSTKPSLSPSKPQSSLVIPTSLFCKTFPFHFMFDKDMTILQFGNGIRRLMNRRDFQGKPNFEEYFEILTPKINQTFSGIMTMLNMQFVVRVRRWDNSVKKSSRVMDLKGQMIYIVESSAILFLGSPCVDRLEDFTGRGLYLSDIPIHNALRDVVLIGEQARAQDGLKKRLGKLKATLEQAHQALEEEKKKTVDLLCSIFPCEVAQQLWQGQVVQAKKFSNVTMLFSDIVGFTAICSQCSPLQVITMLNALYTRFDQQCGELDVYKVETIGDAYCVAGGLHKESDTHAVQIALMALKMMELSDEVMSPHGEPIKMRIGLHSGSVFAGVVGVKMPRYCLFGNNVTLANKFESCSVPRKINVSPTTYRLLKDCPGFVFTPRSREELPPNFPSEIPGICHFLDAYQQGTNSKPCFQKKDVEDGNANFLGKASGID
Experimental: Human embryonic kidney cells (HEK293), endogenously expressing soluble guanylate cyclase (sGC), were used to evaluate the activity of test compounds. Compounds stimulating the sGC enzyme should cause an increase in the intracellular concentration of cGMP. HEK 293 cells were seeded in Dulbecco's Modification of Eagle's Medium supplemented with fetal bovine serum (10% final) and penicillin (100 U/mL)/streptomycin (100 ug/mL) in a […] at a density of 1.5×10^4 cells/well in a poly-D-lysine coated 384 well flat bottom plate. Cells were incubated overnight at 37° C. in a humidified chamber with 5% CO2. Medium was aspirated and cells were washed with 1× Hank's Buffered Saline Salt Solution […]. Cells were then incubated for 15 minutes at 37° C. with 50 μL of a 0.5 mM 3-isobutyl-1-methylxanthine (IBMX) solution. Test article and Diethylenetriamine NONOate (DETA-NONOate) solutions (x μM concentration for test article solution and 10 μM concentration for DETA-NONOate solution; wherein x is one of the following concentrations);
were then added to the assay mixture and the resulting mixture incubated at 37° C. for 20 minutes. After the 20 minute incubation, the assay mixture was aspirated and 10% acetic acid containing 150 ng/mL+3-cGMP (internal standard for LCMS) (50 μL) was added to the cells. The plate was incubated at 4° C. for 30 minutes in the acetic acid solution to stop the reaction and lyse the cells. The plates were then centrifuged at 1,000g for 3 minutes at 4° C. and the supernatant transferred to a clean reaction plate for LCMS analysis.
cGMP concentrations were determined from each sample using the LCMS conditions below (Table 2) and calculated standard curve. The standard curve was prepared in 10% acetic acid with 150 ng/mL+3cGMP (isotopically labelled cGMP with a weight 3 units higher than wild type) with the following final concentrations of cGMP in ng/mL: 1, 5, 10, 50, 100, 250, 500, 1000, 2000.
Data were normalized to a high control using the following equation: 100*(Sample−Low Control)/(High Control−Low Control), where the low control is the average of 16 samples treated with 1% DMSO, and the high control is the average of 16 samples treated with 30 μM of Compound Y depicted below. Data were fit using a 4-parameter fit (log(agonist) vs. response−variable slope) using GraphPad Prism Software v.5. n=2 for all compounds. The Absolute EC50 was interpolated from the curve fit and is defined as the concentration at which a given compound elicits 50% of the high control response. Compounds failing to elicit a minimum response of 50% are reported as >30 μM. For compounds run in duplicate or n higher than 2, the result herein given is the geometric mean of the several results obtained.
Code definitions for the whole cell HEK assay values, expressed as Absolute EC50 which is defined as the concentration at which a given compound elicits 50% of the high control response (Compound Y). Compounds failing to elicit a minimum response of 50% are reported as *.

[2] = biological target: T2, human recombinant soluble guanylate cyclase enzyme α1β1 (h sGC) (Homo sapiens, UniProt Q02108+Q02153); assay: Purified human recombinant sGC α1β1 enzyme assay in the presence of DETA-NONOate (cGMP HTRF); type: biochemical; conditions: 30 uM DETA NONOate; concentration eliciting 50% of high control response (30 uM Compound Y); read-out: sGC_Enz_HTRF_a1b1 EC50 Abs
T2 construct: purchased Enzo Life Sciences ALX-201-177
T2 sequence (Q02108 1-690): T1 sequence (Q02108 1-690)
T2 sequence (Q02153 1-619): T1 sequence (Q02153 1-619)
Experimental: Purified human recombinant soluble guanylate cyclase enzyme α1β1 (h sGC) obtained from Enzo Life Sciences (P/N: ALX-201-177) was used to evaluate the activity of test compounds. The assay reactions contained 0.1 M Tris (pH 8.0), 0.5 mg/mL BSA, 2 mM DTT, 4 mM MgCl2, 30 uM DETA NONOate (Enzo Life Science P/N: ALX-430-014), and 12.5 ng/ml human soluble guanylate cyclase enzyme. […] Guanosine 5′-triphosphate (Sigma-Aldrich P/N: G8877) was added to a final concentration of 300 μM and enzyme reactions were incubated (100 μL, 384-well plate format) at 37° C. for 20 minutes. The controls contained 3% DMSO (low control), or 30 uM of Compound Y (high control). After the 20 minute incubation, the reaction was stopped with the addition of 100 μL of ice cold 20% acetic acid.
cGMP concentrations in all samples were determined using the cGMP HTRF (Cisbio P/N: 62GM2PEC) assay per manufacturer's instructions. A cGMP standard curve was fit using a 4-parameter fit (log(inhibitor) vs. response—variable slope) using GraphPad Prism Software v.6. Samples were diluted appropriately to ensure that values fell within the linear range of the standard curve. The EC50 was interpolated from the curve fit and is defined as the concentration at which the compound elicits 50% of the maximal response of the 30 uM of Compound Y, the high control compound.

[3] = tested on: Guinea pig tracheal smooth muscle (GPTSM) contraction; assay: Electrical field stimulated guinea pig tracheal smooth muscle contraction (ex vivo); conditions: sub-maximal EFS, cumulative dose response curve, three animals pooled; read-out: IC50, inhibition of EFS-induced tracheal smooth muscle contraction
Experimental: Electrical Field Stimulated Guinea Pig Tracheal Smooth Muscle In Vitro (ex vivo) model for the Assessment of Bronchodilation.
It is possible to assess the bronchodilating effects of sGC stimulators by using the system described below. […]
On each experimental day, a guinea pig is killed by exposure to a rising concentration of CO2 and the trachea removed. […] Tissues are washed with Kreb's buffer and stimulated using the previously determined sub-maximal voltage for 1 hour to establish a stable baseline contraction prior to assessment of compound activity.
A cumulative dose response curve (DRC) to each test substance is then performed and changes in smooth muscle contraction measured. The effect of each test substance in each experiment is expressed as a percentage inhibition of the baseline contraction, normalized to the relevant vehicle controls. […] The data from all three experiments are pooled, the DRC plotted, and the test substance potency and efficacy determined.

[4] = tested on: sickle cell disease patients with VOE; conditions: cited from earlier work

Row | Molecule | pEC50 [1] | pEC50 [2] | further results
1 | CCOC(=O)C1(C)C(=O)Nc2nc(-c3cc(OC)n(Cc4ccccc4F)n3)nc(N)c21 (stereo not shown) [Compound I-1, ethyl 4-amino-2-(1-(2-fluorobenzyl)-5-methoxy-1H-pyrazol-3-yl)-5-methyl-6-oxo-6,7-dihydro-5H-pyrrolo[2,3-d]pyrimidine-5-carboxylate] | > 7.00 | > 5.70 | 
2 | COc1nc(-c2ncc(F)c(O)n2)nn1Cc1ccccc1F [Compound I-3] | < 4.52 | < 4.52 | 
3 | CC(C)Oc1cc(-c2nc(N)c3c(n2)NC(=O)C3(C)C(N)=O)nn1Cc1ccccc1F (stereo not shown) [Compound I-39, 4-amino-2-(5-isopropoxy-1-(2-fluorobenzyl)-1H-pyrazol-3-yl)-5-methyl-6-oxo-6,7-dihydro-5H-pyrrolo[2,3-d]pyrimidine-5-carboxamide] | < 4.52 | < 5.30 | 
4 | COc1cc(-c2nc(N)c3c(n2)NC(=O)C3(C)C(=O)NC2CC2)nn1Cc1ccccc1F (stereo not shown) [Compound I-44] | > 7.00 |  | 
5 | COc1cc(-c2ncc(F)c(N3CCS(=O)(=O)CC3)n2)nn1Cc1ccccc1F [Compound I-63] | < 4.52 |  | 
6 | CCOC(=O)C1(C)C(=O)Nc2nc(-c3cc(OC(F)F)n(Cc4ccccc4F)n3)nc(N)c21 (stereo not shown) [Compound I-72] | > 7.00 |  | 
7 | CC(C)[N+]1(C)[C@@H]2CC[C@H]1C[C@@H](OC(=O)C(CO)c1ccccc1)C2 (stereo partly shown) [Ipratropium bromide] |  |  | pIC50 [3]: 9.07
8 | nitric oxide [inhaled NO] |  |  | use of parenteral morphine ([4]; randomized placebo controlled trial, acute VOE, adult patients, compared with placebos): trend towards decreased use of parenteral morphine; pain scores ([4]; randomized placebo controlled trial, acute VOE, adult patients): significantly reduced pain scores; pain scores, analgesic requirements, hospital stay ([4]; sickle cell disease children presenting with VOE): trends toward lower pain scores, decreased analgesic requirements and a shorter hospital stay
